Several values for one entry are separate records, joined by “and”; a condition that tells them apart may be missing. Identical values can stand only once.
How the values were obtained:
[1] = tested on: shTop1 2215 relapsed tumor #4 cells; experiment: Ex vivo viability of relapsed tumor cells (propidium iodide exclusion flow cytometry); format: cell-based, mice; details: treated ex-vivo for 24 hours
Excerpt: Viability, measured by propidium iodide exclusion flow cytometry, is plotted relative to untreated cells.

[2] = tested on: Eμ-Myc Arf^−/− lymphoma cells; experiment: Apoptotic response / in vitro viability of lymphoma cells to doxorubicin; format: cell-based, murine; details: Mus musculus; apoptotic response within 24 hours
Method: Competition and viability assays were performed according to the following protocols. 2 days post infection, lymphoma cells were split into replicate wells of 500,000 cells in 12 well plates. Following 24 hour treatments with a range of drug doses, the GFP positive percentage was quantified in the surviving cell population using a BD LSRII flow cytometer. The live cell population was gated via a forward scatter (FSC) versus side scatter (SSC) plotting. […] For in vitro cell viability assays, lymphoma cells were treated in triplicate at the indicated doses of doxorubicin/camptothecin. Viability was determined after 24 hours by an FSC versus SSC gate and plotted relative to untreated viability.

[3] = congestive heart failure, dilated cardiomyopathy, death; cited from earlier work

Row | SMILES | drug resistance of Top2A down-regulated relapse compared to control primary tumor [1] | IC50 [2] | cumulative dose at which risks of cardiac side effects dramatically increase [3] [mg/m^2]
1 | COc1cccc2c1C(=O)c1c(O)c3c(c(O)c1C2=O)C[C@@](O)(C(=O)CO)C[C@@H]3O[C@H]1C[C@H](N)[C@H](O)[C@H](C)O1 [doxorubicin] | doxorubicin resistance | ~0.007 µg/mL and ~16 nM | ≥ 550
2 | N.N.[Cl][Pt][Cl] [cisplatin] | not cross-resistance to cisplatin |  | 

Source: patent publication US20080242622A1, “Identification of genetic alterations that modulate drug sensitivity in cancer treatments” (Cold Spring Harbor Laboratory, priority 2007, published 2008)
